We go through two molecules from patent US9763996B2, “Polymyxin derivative and uses thereof” (Northern Antibiotics Ltd., priority 2015, dated 2017).

≈ marks a conversion by molar mass, not a printed value. Entries after “also recorded” stand apart in the source; their conditions may differ. Read-outs that look alike come from different tables or passages of the source. Where a SMILES comes first, the peptide text is derived from it. Bridges are numbered along the chain shown (N, C = ends). [ ]: non-standard residue; d: D form. The star is where a group is joined. Octanoyl = CCCCCCCC(=O)*; Dab = NCC[C@H](N)C(=O)O; Abu = CC[C@H](N)C(=O)O

The test system of one series is P. aeruginosa. Put plainly: Synergy studies with rifampin. Type of series: cell-based, Pseudomonas aeruginosa. Conditions: against P. aeruginosa. The method, then:
Synergy studies were performed by using polymyxin derivatives in combination with rifampin, a model compound for such antibacterial agents that the intact outer membrane of Gram-negative bacteria acts as a permeability barrier.

Series [1] can be described thus: 7-day IV infusion toxicity (nephrotoxicity) study in cynomolgus monkeys. Conditions: for unscheduled necropsy / euthanized due to severe nephrotoxic effects: 3 animals per group. On the procedure:
In vivo toxicity and toxicokinetic studies were performed by using cynomolgus monkeys. The laboratory that performed the animal studies is accredited by the Association for Assessment and Accreditation of Laboratory Animal Care (AAALAC), has an Animal Welfare Assurance issued by the Office of Laboratory Animal Welfare (OLAW), is registered with the United States Department of Agriculture (USDA), and has an Institutional Animal Care and Use Committee (IACUC) responsible for compliance with applicable laws and regulations concerning the humane care and use of laboratory animals.
Naïve female cynomolgus monkeys were acclimatized to study room for 28 days during which each animal was implanted with a permanent indwelling femoral catheter to permit continuous intravenous infusions. The animals were allowed surgical recovery period of at least 2 weeks before initiating dosing.
Polymyxin B sulfate was from Sigma-Aldrich (catalogue number P0972, lot number BCBF8382V). On each day of use, appropriate quantities of NAB739, NAB815 or polymyxin B were weighed and dissolved in appropriate volumes of sterile saline to prepare a stock solution for each test article and positive control. A correction factor was used in the stock solution preparation to account for both the purity and sulfate content in each test article. Accordingly, the dose (such as 36 mg/kg/d) refers to the dose of the pure peptide as its free base form, not as its sulfate salt.
The doses were the following: polymyxin B 18 mg/kg/d (Group 1), polymyxin B 24 mg/kg/d (Group 2), NAB739 24 mg/kg/d (Group 3), NAB739 36 mg/kg/d (Group 4), NAB815 24 mg/kg/d (Group 5), NAB815 36 mg/kg/d (Group 6). Three animals were included in each study groups.
For seven days, the animals were dosed by intravenous (IV) infusion three times daily (TID) at a dose volume of 10 mL/kg for 1 hour (±10 minutes), 8±0.5 hours apart. The day of initial dose administration was designated study Day 1, with subsequent days consecutively numbered. Days prior to the initial dose administration were consecutively numbered with the final day of acclimation referenced as Day −1.
The following parameters were evaluated at designed intervals: clinical observations, body weights, clinical pathology (hematology, coagulation, serum chemistry, urinalysis including urine sediments and urine chemistry), toxicokinetics (plasma and urine) and anatomic pathology (kidney). In cases of animals sacrificed on an unscheduled basis, samples were taken on the day of the sacrifice.
On the day of necropsy, animals were sedated with ketamine, weighed, and anesthetized with an intravenous injection of a commercial pentobarbital and phenytoin solution, followed by exsanguinations.
At necropsy, gross observations and organ weights were recorded, and specific tissues were collected. Histopathology was conducted on sections of kidney stained with hematoxylin and eosin (H&E).
The figures also show Urine N-acetyl-β-D-glucosaminidase/urine creatinine ratio (U-NAG/Crea; FIG. 3) and Urine Gamma Glutamyltransferase/urine creatinine ratio (U-GGT/Crea; FIG. 4), both urine biomarkers for kidney injury, in those animals. S-Crea and U-Crea were measured by using an Olympus Analyzer (OA) and the modified Jaffe method, S-BUN by using OA and urease/L-glutamate dehydrogenase. U-NAG was measured by using OA/enzymatic, and U-GGT by using OA and glutamyl-carboxy-p-nitroanilide IFCC.
The presence of the following nephro-pathological parameters was recorded in each animal: tubular basophilia (re-generation), tubular degeneration/necrosis, infiltration (by mononuclear and/or mixed inflammatory cells), tubular dilatation, and tubular casts.

Another series deals with E. coli ATCC 25922. As to conditions: E. coli ATCC 25922.
The next series has as its system K. pneumoniae ATCC 43816. As to conditions: K. pneumoniae ATCC 43816.
A further series concerns K. pneumoniae JMI 27072. As to conditions: K. pneumoniae JMI 27072.
A further series concerns E. coli JMI 109. Conditions: alone; E. coli JMI 109 (polymyxin-nonsusceptible).
In a further series the test system is P. aeruginosa ATCC 27853. The experiment in a line: MIC assay (CLSI broth microdilution; checkerboard with rifampin). Conditions: P. aeruginosa ATCC 27853. Background: In broth dilution the organism is exposed to a series of concentrations in liquid medium.
[2] abbreviates: in combination with rifampin 0.25 μg/mL.

`CCCCCCCC(=O)N[C@@H](CCN)C(=O)N[C@H](C(=O)N[C@@H](C(=O)N[C@H]1CCNC(=O)[C@H]([C@@H](C)O)NC(=O)[C@H](CCN)NC(=O)[C@H](CC)NC(=O)[C@H](CC(C)C)NC(=O)[C@@H](Cc2ccccc2)NC(=O)[C@H](CCN)NC1=O)[C@H](C)O)[C@@H](C)O` [NAB815, octanoyl-αDab-Thr-DThr-[cyclo-α,γDab-αDab-DPhe-Leu-Abu-αDab-Thr]] (Octanoyl-[Dab]T[dT][Dab][Dab][dF]L[Abu][Dab]T; lactam 4-C): the “synergistic activity with rifampin” value in the series on P. aeruginosa is listed as “lacked any notable synergistic activity with rifampin”. Further, the “kidney injury markers (S-BUN, S-Crea, U-NAG/Crea, U-GGT/Crea)” value in series [1] (24 mg/kg/d IV TID 7 days) is recorded as “None of the parameters was elevated”; in series [1] (36 mg/kg/d IV TID 7 days) it was “only minor if any elevations in the four parameters”. For the same molecule, the “unscheduled necropsy / euthanized due to severe nephrotoxic effects” value in series [1] (36 mg/kg/d IV TID 7 days) is reported as “underwent no prescheduled necropsy”. Also, the “kidney histopathology findings (grade of nephro-pathological parameters)” value in series [1] (36 mg/kg/d IV TID, H&E kidney sections, per animal(s)) is on record as “moderate findings, both in one parameter only; also recorded: no other than minimal or mild findings; also recorded: less severe nephropathic alterations with NAB815”. The minimal inhibitory concentration (MIC) is 2 µg/mL (≈ 1.7 µM) against E. coli ATCC 25922 (alone), 1 µg/mL in the series on E. coli ATCC 25922 (setting [2]), 1 µg/mL with K. pneumoniae ATCC 43816 (setting [2]) and 2 to 4 µg/mL with K. pneumoniae JMI 27072 (alone). Besides, the “MIC of rifampin in the presence of the peptide” value with E. coli ATCC 25922 (peptide at 1 μg/mL) and in the series with K. pneumoniae ATCC 43816 (peptide at 1 μg/mL) was 0.25 µg/mL in each case. The figures for the “factor of decrease of the MIC of rifampin” value with E. coli ATCC 25922 (peptide at 1 μg/mL) and in the series with K. pneumoniae ATCC 43816 (peptide at 1 μg/mL) were 32 and 64, respectively.

Regarding Polymyxin B, the “unscheduled necropsy / euthanized due to severe nephrotoxic effects” value is reported as “all the three animals receiving polymyxin B at 18 mg/kg/d had to be euthanized; also recorded: on Day 4 for one animal receiving 18 mg/kg/d; also recorded: on Day 5 for two animals receiving 18 mg/kg/d” in series [1] (18 mg/kg/d IV TID 7 days) and “Two animals receiving polymyxin B at 24 mg/kg/d; also recorded: for two animals receiving 24 mg/kg/d” in series [1] (24 mg/kg/d IV TID 7 days). Further, in series [1] (18 and 24 mg/kg/d IV TID, all the six animals), the “S-BUN, S-Crea and U-GGT/Crea” value is reported as “remarkably increased”. Also, in series [1] (18 and 24 mg/kg/d IV TID, six animals), the U-NAG/Crea result was “remarkably increased in five of the animals”. For the same molecule, the MIC was 2 µg/mL against E. coli ATCC 25922 (alone); 0.5 to 1 µg/mL with E. coli ATCC 25922 (setting [2]); 2 µg/mL with K. pneumoniae ATCC 43816 (alone); 0.5 to 1 µg/mL in the series on K. pneumoniae ATCC 43816 (setting [2]); 2 µg/mL in the series on K. pneumoniae JMI 27072 (alone); 1 µg/mL in the series on K. pneumoniae JMI 27072 (setting [2]). For the same molecule, the minimal inhibitory concentration (MIC) in the series on A. baumannii JMI 48125 (alone) was 2 µg/mL; in the series with A. baumannii JMI 48125 (setting [2]), 1 µg/mL; against E. coli JMI 109, 4 to 8 µg/mL; with P. aeruginosa ATCC 27853 (alone) it was 2 µg/mL; in the series on P. aeruginosa ATCC 27853 (setting [2]), 1 µg/mL.

The MIC is the lowest concentration found to suppress growth.
